# Values quoted from earlier work as cited in patent US6455574B1, “Therapeutic combination” (Pfizer Inc., priority 1997, dated 2002).
# Legend:
# [1] = system: calcium channel; conditions: see International Patent Application Number PCT/EP94/02697
# [2] = system: smooth muscle cell migration; conditions: see International Patent Application Number PCT/EP95/00847
SMILES,calcium channel blocking activity [1],inhibition of smooth muscle cell migration [2]
"CCOC(=O)C1=C(COCCN)NC(C)=C(C(=O)OC)[C@H]1c1ccccc1Cl (single isomer, unassigned) [R(+) isomer]",little or no,potent inhibitor
"CCOC(=O)C1=C(COCCN)NC(C)=C(C(=O)OC)[C@@H]1c1ccccc1Cl (single isomer, unassigned) [S(−) isomer]",substantially confined to the S(−) isomer,–
